{"source": "patent US6706663B2", "about": "“Herbicidal 3-heterocyclic substituted benzisothiazole and benzisoxazole compounds” (Wyeth, priority 2000, dated 2004)", "key": {"ORYSAT (Rice, Tebonnet) [1]": {"tested_on": "ORYSAT (Rice, Tebonnet)", "assay": "Postemergence herbicidal evaluation", "assay_type": "in vivo, Oryza sativa, (L.) Tebonnet", "outline": "(§1)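 Seedlings grown about two weeks in flats, sprayed, then kept under standard greenhouse care. Rated visually 4–5 weeks after treatment on a 0–9 scale (stand, vigour, malformation, size, chlorosis, overall appearance) relative to untreated control; repeat tests averaged.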"}, "[2]": {"tested_on": "AMBEL (Ambrosia artemisifolia)", "assay": "Postemergence herbicidal evaluation", "assay_type": "in vivo, L.", "outline": "as §1"}, "[3]": {"tested_on": "CASOB (Cassia obtusifolia)", "assay": "Postemergence herbicidal evaluation", "assay_type": "in vivo, L.", "outline": "as §1"}, "[4]": {"tested_on": "CHEAL (Chenopodium album)", "assay": "Postemergence herbicidal evaluation", "assay_type": "in vivo, L.", "outline": "as §1"}, "[5]": {"tested_on": "AMBEL (Ambrosia artemisifolia)", "assay": "Preemergence herbicidal evaluation", "assay_type": "in vivo, L.", "conditions": "preemergence, rated 4-5 weeks after treatment", "outline": "(§2)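 Seeds planted in potting soil cups and sprayed preemergence with aqueous acetone compound solution. Greenhouse-grown; rated 4–5 weeks after treatment on a 0-9 visual scale (stand, vigor, malformation, size, chlorosis, appearance) versus control.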"}, "[6]": {"tested_on": "CASOB (Cassia obtusifolia)", "assay": "Preemergence herbicidal evaluation", "assay_type": "in vivo, L.", "conditions": "preemergence, rated 4-5 weeks after treatment", "outline": "as §2"}, "[7]": {"tested_on": "CHEAL (Chenopodium album)", "assay": "Preemergence herbicidal evaluation", "assay_type": "in vivo, L.", "conditions": "preemergence, rated 4-5 weeks after treatment", "outline": "as §2"}, "[8]": {"tested_on": "GLXMAW (Soybean, Williams)", "assay": "Postemergence herbicidal evaluation", "assay_type": "in vivo, Glycine max, (L.) Merr. cv Williams", "outline": "as §1"}, "[9]": {"tested_on": "IPOHE (Ipomoea hederacea)", "assay": "Preemergence herbicidal evaluation", "assay_type": "in vivo, (L.) Jacq.", "conditions": "preemergence, rated 4-5 weeks after treatment"}, "ORYSAT (Rice, Tebonnet) [10]": {"tested_on": "ORYSAT (Rice, Tebonnet)", "assay": "Flooded paddy, post-transplant rice tolerance", "assay_type": "in vivo, Oryza sativa, (L.) Tebonnet", "conditions": "flooded paddy, post-transplant rice, rated 3-4 weeks after treatment, 0-9 rating scale", "outline": "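Two ten-day-old Tebonnet rice seedlings transplanted into silt loam, then flooded with water held at 1.5–3 cm above soil; herbicide applied post-transplant. Plants kept in greenhouse and rated visually 0–9 versus untreated control for stand, vigor, malformation, size and chlorosis.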"}, "[11]": {"tested_on": "SAGPY (Sagittaria pygmaea)", "assay": "Flooded paddy, preemergence weed control", "assay_type": "in vivo, L.", "conditions": "rated 3-4 weeks after treatment, 0-9 rating scale", "outline": "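Visual 0-9 rating versus control, scoring stand, vigor, malformation, size, chlorosis and overall appearance. Silt loam soil, propagules in top 0.5 cm; flood depth 1.5–3 cm held for the whole test; greenhouse.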"}, "ORYSAT (Rice, Tebonnet) [12]": {"tested_on": "ORYSAT (Rice, Tebonnet)", "assay": "Preemergence herbicidal evaluation", "assay_type": "in vivo, Oryza sativa, (L.) Tebonnet", "conditions": "preemergence, rated 4-5 weeks after treatment"}, "[13]": {"tested_on": "TRZAWR (Wheat, Winter, cv Riband)", "assay": "Preemergence herbicidal evaluation", "assay_type": "in vivo, Triticum aestivum", "conditions": "preemergence, rated 4-5 weeks after treatment", "outline": "as §2"}, "GALAP (Galium aparine) [14]": {"tested_on": "GALAP (Galium aparine)", "assay": "Preemergence herbicidal evaluation", "assay_type": "in vivo", "conditions": "preemergence, rated 4-5 weeks after treatment", "outline": "as §2"}, "GALAP (Galium aparine) [15]": {"tested_on": "GALAP (Galium aparine)", "assay": "Postemergence herbicidal evaluation", "assay_type": "in vivo", "outline": "as §1"}, "ZEAMX (Corn, Field)": {"tested_on": "ZEAMX (Corn, Field)", "assay": "Postemergence herbicidal evaluation", "assay_type": "in vivo, Zea mays, L.", "outline": "as §1"}, "[16]": {"tested_on": "ABUTH (Abutilon theophrasti)", "assay": "Preemergence herbicidal evaluation", "assay_type": "in vivo, Medic.", "conditions": "preemergence, rated 4-5 weeks after treatment"}, "[17]": {"tested_on": "ECHCG (Echinochloa crus-galli)", "assay": "Postemergence herbicidal evaluation", "assay_type": "in vivo, (L.) Beau", "outline": "as §1"}, "[18]": {"tested_on": "ABUTH (Abutilon theophrasti)", "assay": "Postemergence herbicidal evaluation", "assay_type": "in vivo, Medic.", "outline": "as §1"}, "[19]": {"tested_on": "CYPSE (Cyperus serotinus)", "assay": "Flooded paddy, preemergence weed control", "assay_type": "in vivo, Rottb.", "conditions": "rated 3-4 weeks after treatment, 0-9 rating scale", "outline": "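Seeds or propagules were planted 0.5 cm deep in silt loam and flooded to 1.5–3 cm. Compounds in 50/50 v/v aqueous/acetone were pipetted into the flood water at about 0.0080 to 0.1250 kg/ha. After 3–4 weeks in the greenhouse, effect was rated visually on a 0–9 scale versus untreated control.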"}}}
{"smiles": "Cc1cscc1-c1nsc2ccc(-n3c(=O)cc(C(F)(F)F)n(C)c3=O)cc12", "note": "[Compound 26, 1-methyl-3-[3-(4-methyl-3-thienyl)-1,2-benzisothiazol-5-yl]-6-(trifluoromethyl)uracil]", "values": [{"measurement": "Postemergence herbicidal rating, ORYSAT", "setting": "ORYSAT (Rice, Tebonnet) [1]; rate 0.0320 kg/ha", "value": 3.5}, {"measurement": "Postemergence herbicidal rating, ORYSAT", "setting": "ORYSAT (Rice, Tebonnet) [1]; rate 0.0620 kg/ha", "value": 4.5}, {"measurement": "Postemergence herbicidal rating, AMBEL", "setting": "[2]; rate 0.0320 kg/ha", "value": 9.0}, {"measurement": "Postemergence herbicidal rating, AMBEL", "setting": "[2]; rate 0.0620 kg/ha", "value": 9.0}, {"measurement": "Postemergence herbicidal rating, CASOB", "setting": "[3]; rate 0.0320 kg/ha", "value": 4.0}, {"measurement": "Postemergence herbicidal rating, CASOB", "setting": "[3]; rate 0.0620 kg/ha", "value": 9.0}, {"measurement": "Postemergence herbicidal rating, CHEAL", "setting": "[4]; rate 0.0320 kg/ha", "value": 7.0}, {"measurement": "Postemergence herbicidal rating, CHEAL", "setting": "[4]; rate 0.0620 kg/ha", "value": 9.0}, {"measurement": "AMBEL preemergence herbicidal rating", "setting": "[5]; Rate 0.0620 kg/ha", "value": 3.0}, {"measurement": "AMBEL preemergence herbicidal rating", "setting": "[5]; Rate 0.1250 kg/ha", "value": 6.0}, {"measurement": "AMBEL preemergence herbicidal rating", "setting": "[5]; Rate 0.2500 kg/ha", "value": 8.5}, {"measurement": "CASOB preemergence herbicidal rating", "setting": "[6]; Rate 0.0620 kg/ha", "value": 1.0}, {"measurement": "CASOB preemergence herbicidal rating", "setting": "[6]; Rate 0.1250 kg/ha", "value": 3.5}, {"measurement": "CASOB preemergence herbicidal rating", "setting": "[6]; Rate 0.2500 kg/ha", "value": 6.0}, {"measurement": "CHEAL preemergence herbicidal rating", "setting": "[7]; Rate 0.0620 kg/ha", "value": 9.0}, {"measurement": "CHEAL preemergence herbicidal rating", "setting": "[7]; Rate 0.1250 kg/ha", "value": 9.0}, {"measurement": "CHEAL preemergence herbicidal rating", "setting": "[7]; Rate 0.2500 kg/ha", "value": 9.0}, {"measurement": "Postemergence herbicidal rating, GLXMAW", "setting": "[8]; rate 0.0320 kg/ha", "value": 6.0}, {"measurement": "Postemergence herbicidal rating, GLXMAW", "setting": "[8]; rate 0.0620 kg/ha", "value": 6.5}, {"measurement": "IPOHE preemergence herbicidal rating", "setting": "[9]; Rate 0.0620 kg/ha", "value": 1.5}, {"measurement": "IPOHE preemergence herbicidal rating", "setting": "[9]; Rate 0.1250 kg/ha", "value": 4.0}, {"measurement": "IPOHE preemergence herbicidal rating", "setting": "[9]; Rate 0.2500 kg/ha", "value": 6.0}, {"measurement": "herbicidal rating, ORYSAT (rice tolerance)", "setting": "ORYSAT (Rice, Tebonnet) [10]; rate 0.0080 kg/ha", "value": 0.0}, {"measurement": "herbicidal rating, ORYSAT (rice tolerance)", "setting": "ORYSAT (Rice, Tebonnet) [10]; rate 0.0320 kg/ha", "value": 2.0}, {"measurement": "herbicidal rating, ORYSAT (rice tolerance)", "setting": "ORYSAT (Rice, Tebonnet) [10]; rate 0.1250 kg/ha", "value": 4.3}, {"measurement": "herbicidal rating, SAGPY", "setting": "[11]; rate 0.0080 kg/ha", "value": 1.5}, {"measurement": "herbicidal rating, SAGPY", "setting": "[11]; rate 0.0320 kg/ha", "value": 5.3}, {"measurement": "herbicidal rating, SAGPY", "setting": "[11]; rate 0.1250 kg/ha", "value": 8.0}, {"measurement": "ORYSAT preemergence herbicidal rating", "setting": "ORYSAT (Rice, Tebonnet) [12]; Rate 0.0620 kg/ha", "value": 2.0}, {"measurement": "ORYSAT preemergence herbicidal rating", "setting": "ORYSAT (Rice, Tebonnet) [12]; Rate 0.1250 kg/ha", "value": 3.0}, {"measurement": "ORYSAT preemergence herbicidal rating", "setting": "ORYSAT (Rice, Tebonnet) [12]; Rate 0.2500 kg/ha", "value": 5.5}, {"measurement": "TRZAWR preemergence herbicidal rating", "setting": "[13]; Rate 0.0620 kg/ha", "value": 2.0}, {"measurement": "TRZAWR preemergence herbicidal rating", "setting": "[13]; Rate 0.1250 kg/ha", "value": 3.0}, {"measurement": "TRZAWR preemergence herbicidal rating", "setting": "[13]; Rate 0.2500 kg/ha", "value": 7.0}, {"measurement": "GALAP preemergence herbicidal rating", "setting": "GALAP (Galium aparine) [14]; Rate 0.0620 kg/ha", "value": 7.0}, {"measurement": "GALAP preemergence herbicidal rating", "setting": "GALAP (Galium aparine) [14]; Rate 0.1250 kg/ha", "value": 7.0}, {"measurement": "GALAP preemergence herbicidal rating", "setting": "GALAP (Galium aparine) [14]; Rate 0.2500 kg/ha", "value": 9.0}, {"measurement": "Postemergence herbicidal rating, GALAP", "setting": "GALAP (Galium aparine) [15]; rate 0.0320 kg/ha", "value": 5.0}, {"measurement": "Postemergence herbicidal rating, GALAP", "setting": "GALAP (Galium aparine) [15]; rate 0.0620 kg/ha", "value": 6.0}, {"measurement": "Postemergence herbicidal rating, ZEAMX", "setting": "ZEAMX (Corn, Field); rate 0.0320 kg/ha", "value": 5.0}, {"measurement": "Postemergence herbicidal rating, ZEAMX", "setting": "ZEAMX (Corn, Field); rate 0.0620 kg/ha", "value": 5.5}, {"measurement": "ABUTH preemergence herbicidal rating", "setting": "[16]; Rate 0.0620 kg/ha", "value": 4.0}, {"measurement": "ABUTH preemergence herbicidal rating", "setting": "[16]; Rate 0.1250 kg/ha", "value": 9.0}, {"measurement": "ABUTH preemergence herbicidal rating", "setting": "[16]; Rate 0.2500 kg/ha", "value": 9.0}, {"measurement": "Postemergence herbicidal rating, ECHCG", "setting": "[17]; rate 0.0320 kg/ha", "value": 3.0}, {"measurement": "Postemergence herbicidal rating, ECHCG", "setting": "[17]; rate 0.0620 kg/ha", "value": 3.0}, {"measurement": "Postemergence herbicidal rating, ABUTH", "setting": "[18]; rate 0.0320 kg/ha", "value": 9.0}, {"measurement": "Postemergence herbicidal rating, ABUTH", "setting": "[18]; rate 0.0620 kg/ha", "value": 9.0}, {"measurement": "herbicidal rating, CYPSE", "setting": "[19]; rate 0.0320 kg/ha", "value": 0.0}, {"measurement": "herbicidal rating, CYPSE", "setting": "[19]; rate 0.1250 kg/ha", "value": 3.0}]}
